Earlier results as cited in patent US20160361357A1, “STABLE HIGH CONCENTRATION STRONTIUM COMPOUNDS AND FORMULATIONS FOR TOPICAL APPLICATION” (Cosmederm Bioscience, Inc., priority 2015, published 2016).

Assays:
[1] = molecular target: synaptotagmin-1 (Homo sapiens, UniProt P21579); conditions: strontium substitutes for calcium; response to TCN activation
[2] = tested on: TCN; conditions: strontium mixed with 70% glycolic acid, pH 0.6 chemical peel

Chain of synaptotagmin-1 (P21579 whole entry, species assumed): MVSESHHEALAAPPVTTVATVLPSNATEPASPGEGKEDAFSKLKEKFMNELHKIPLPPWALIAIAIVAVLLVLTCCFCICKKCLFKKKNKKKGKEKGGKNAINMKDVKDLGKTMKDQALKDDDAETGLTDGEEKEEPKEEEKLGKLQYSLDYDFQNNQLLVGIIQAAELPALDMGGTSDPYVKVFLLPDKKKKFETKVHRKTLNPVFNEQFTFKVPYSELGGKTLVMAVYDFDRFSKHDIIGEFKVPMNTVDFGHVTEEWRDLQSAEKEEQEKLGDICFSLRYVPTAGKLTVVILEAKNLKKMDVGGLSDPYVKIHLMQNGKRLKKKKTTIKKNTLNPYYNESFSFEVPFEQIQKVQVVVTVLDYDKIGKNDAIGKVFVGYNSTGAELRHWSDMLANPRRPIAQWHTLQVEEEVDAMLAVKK

reduction of amplitude of synchronous neurotransmitter release [1]: more than 90%
SMILES: [Sr+2] [strontium]
burning pain and stinging suppressed [2]: ≥ 80%
